Assay results published in US10829492B2, “Amino pyrazolopyrimidine compound used as neurotrophic factor tyrosine kinase receptor inhibitor” (CHIA TAI TIANQING PHARMACEUTICAL GROUP CO., LTD., priority 2016, dated 2020).

How the values were obtained:
Format in all cases: biochemical
[1] = biological target: TrkA kinase (Homo sapiens (Human), UniProt P04629); experiment: HTRF assay for inhibitory activity (IC50) against NTRK kinase, TrkA; settings: kinase 0.5 nM
Description: (§1) 1. Assay for Inhibitory Activity (IC50) Against NTRK Kinase
(§2) A testing platform for TrkA, TrkB and TrkC kinase activity was established based on Homogeneous Time-Resolved Fluorescence (HTRF) assay, and the activities of the compounds were tested using the platform. The compounds were subjected to three-fold gradient dilution with 100% DMSO with a starting concentration of 1 mM (11 concentrations in total). 4 μL of diluted sample for each concentration was added to 96 μL of reaction buffer (50 mM HEPES, pH7.4, 5 mM MgCl2, 1 mM NaVO3, 0.001% Tween-20, 0.01% BSA and 1 mM DTT) and mixed homogeneously to be used as a 4* compound. The reaction buffer was used to formulate 2* TrkA, TrkB and TrkC kinases (purchased from Carna Biosciences 08-186, 08-187, 08-197, and the final concentrations thereof were 0.5 nM, 0.1 nM, and 1 nM, respectively) and 4* substrate mixture (ATP+TK peptide) (wherein the final concentrations of ATP were 40 μM, 50 μM, and 20 μM, respectively; TK peptide, HTRF® KinEASE™-TK, was purchased from Cisbio, and the final concentration thereof was 100 nM) for use. 2.5 μL of the 4* compound was added to a 384-well plate (OptiPlate-384, purchased from PerkinElmer), and then 5 μL of the 2* TrkA, TrkB and TrkC kinases were added, and mixed homogeneously by centrifugation. Then 2.5 μL of the 4* substrate mixture was added to initiate the reaction (the total reaction volume is 10 μL). The 384-well plate was placed in an incubator and incubated for 60 min at 23° C. Then the reaction was terminated by adding 5 μL of Eu3+ cryptate-labeled anti-phosphotyrosine antibody (HTRF® KinEASE™-TK, purchased from Cisbio), and 5 μL of Streptavidin-XL-665 (HTRF® KinEASE™-TK, purchased from Cisbio). After incubated for 1 hr in the incubator, the fluorescence values were read on Envision (purchased from PerkinElmer). The excitation wavelength was 320 nm, and the emission wavelengths for detection were 665 nm and 620 nm. The enzymatic activity was represented by a ratio of the two readout at the two emission wavelengths. The enzymatic activity for each compound was tested at 11 concentrations, and IC50 values of the compounds were obtained by calculating the data using GraFit6.0 software (Erithacus Software).

[2] = biological target: TrkB kinase (Homo sapiens (Human), UniProt Q16620); experiment: HTRF assay for inhibitory activity (IC50) against NTRK kinase, TrkB; settings: ATP 50 μM, kinase 0.1 nM
TrkB kinase, sequence (Q16620 32-822): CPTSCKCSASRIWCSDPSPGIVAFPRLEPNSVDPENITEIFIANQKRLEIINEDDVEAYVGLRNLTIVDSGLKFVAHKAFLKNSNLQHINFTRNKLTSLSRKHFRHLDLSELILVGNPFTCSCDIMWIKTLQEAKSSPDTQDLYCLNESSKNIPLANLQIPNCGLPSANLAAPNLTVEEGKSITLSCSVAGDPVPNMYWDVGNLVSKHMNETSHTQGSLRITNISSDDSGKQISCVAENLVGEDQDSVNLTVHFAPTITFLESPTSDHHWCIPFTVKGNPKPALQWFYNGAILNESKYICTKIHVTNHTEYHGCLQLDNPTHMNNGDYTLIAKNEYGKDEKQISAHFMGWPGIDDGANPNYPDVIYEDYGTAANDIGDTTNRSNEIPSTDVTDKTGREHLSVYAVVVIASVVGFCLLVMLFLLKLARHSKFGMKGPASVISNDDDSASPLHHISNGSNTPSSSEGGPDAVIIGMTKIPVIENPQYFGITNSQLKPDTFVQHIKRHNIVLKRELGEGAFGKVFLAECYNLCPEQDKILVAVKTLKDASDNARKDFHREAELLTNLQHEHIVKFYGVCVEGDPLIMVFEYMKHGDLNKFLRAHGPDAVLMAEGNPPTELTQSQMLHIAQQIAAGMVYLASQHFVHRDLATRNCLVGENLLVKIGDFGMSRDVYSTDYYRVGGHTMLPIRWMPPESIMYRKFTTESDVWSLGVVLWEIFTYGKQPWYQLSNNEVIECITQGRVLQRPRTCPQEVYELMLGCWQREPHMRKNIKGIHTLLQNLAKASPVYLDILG
Description: as §1, §2

[3] = biological target: TrkC kinase (Homo sapiens (Human), UniProt Q16288); experiment: HTRF assay for inhibitory activity (IC50) against NTRK kinase, TrkC; settings: ATP 20 μM, kinase 1 nM
TrkC kinase, sequence (Q16288 32-839): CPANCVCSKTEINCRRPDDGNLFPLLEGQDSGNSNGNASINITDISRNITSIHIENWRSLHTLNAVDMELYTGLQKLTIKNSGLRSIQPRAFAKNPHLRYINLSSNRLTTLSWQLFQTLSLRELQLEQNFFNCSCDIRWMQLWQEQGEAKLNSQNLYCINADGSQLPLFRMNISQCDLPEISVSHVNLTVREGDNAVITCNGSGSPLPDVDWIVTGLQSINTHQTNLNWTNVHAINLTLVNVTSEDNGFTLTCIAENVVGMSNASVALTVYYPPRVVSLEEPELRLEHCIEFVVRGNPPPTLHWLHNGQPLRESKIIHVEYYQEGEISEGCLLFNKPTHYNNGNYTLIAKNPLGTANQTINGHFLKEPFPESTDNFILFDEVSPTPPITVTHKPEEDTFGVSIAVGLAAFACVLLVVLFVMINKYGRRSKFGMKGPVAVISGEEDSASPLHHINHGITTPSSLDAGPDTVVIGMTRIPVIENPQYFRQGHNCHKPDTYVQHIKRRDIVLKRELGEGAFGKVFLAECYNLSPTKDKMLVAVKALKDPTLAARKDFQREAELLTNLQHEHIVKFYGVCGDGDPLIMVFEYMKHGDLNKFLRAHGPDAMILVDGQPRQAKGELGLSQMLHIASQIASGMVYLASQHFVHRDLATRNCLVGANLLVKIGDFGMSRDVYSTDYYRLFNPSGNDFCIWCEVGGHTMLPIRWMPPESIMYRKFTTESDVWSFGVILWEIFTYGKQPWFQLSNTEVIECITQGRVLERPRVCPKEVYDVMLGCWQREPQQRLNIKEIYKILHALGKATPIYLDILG
Description: as §1, §2

[4] = biological target: JAK2 kinase (Homo sapiens (Human), UniProt O60674); experiment: HTRF assay for inhibitory activity (IC50) against JAK2 kinase; settings: ATP 5 μM, kinase 0.05 nM
JAK2 kinase, sequence (O60674 whole entry): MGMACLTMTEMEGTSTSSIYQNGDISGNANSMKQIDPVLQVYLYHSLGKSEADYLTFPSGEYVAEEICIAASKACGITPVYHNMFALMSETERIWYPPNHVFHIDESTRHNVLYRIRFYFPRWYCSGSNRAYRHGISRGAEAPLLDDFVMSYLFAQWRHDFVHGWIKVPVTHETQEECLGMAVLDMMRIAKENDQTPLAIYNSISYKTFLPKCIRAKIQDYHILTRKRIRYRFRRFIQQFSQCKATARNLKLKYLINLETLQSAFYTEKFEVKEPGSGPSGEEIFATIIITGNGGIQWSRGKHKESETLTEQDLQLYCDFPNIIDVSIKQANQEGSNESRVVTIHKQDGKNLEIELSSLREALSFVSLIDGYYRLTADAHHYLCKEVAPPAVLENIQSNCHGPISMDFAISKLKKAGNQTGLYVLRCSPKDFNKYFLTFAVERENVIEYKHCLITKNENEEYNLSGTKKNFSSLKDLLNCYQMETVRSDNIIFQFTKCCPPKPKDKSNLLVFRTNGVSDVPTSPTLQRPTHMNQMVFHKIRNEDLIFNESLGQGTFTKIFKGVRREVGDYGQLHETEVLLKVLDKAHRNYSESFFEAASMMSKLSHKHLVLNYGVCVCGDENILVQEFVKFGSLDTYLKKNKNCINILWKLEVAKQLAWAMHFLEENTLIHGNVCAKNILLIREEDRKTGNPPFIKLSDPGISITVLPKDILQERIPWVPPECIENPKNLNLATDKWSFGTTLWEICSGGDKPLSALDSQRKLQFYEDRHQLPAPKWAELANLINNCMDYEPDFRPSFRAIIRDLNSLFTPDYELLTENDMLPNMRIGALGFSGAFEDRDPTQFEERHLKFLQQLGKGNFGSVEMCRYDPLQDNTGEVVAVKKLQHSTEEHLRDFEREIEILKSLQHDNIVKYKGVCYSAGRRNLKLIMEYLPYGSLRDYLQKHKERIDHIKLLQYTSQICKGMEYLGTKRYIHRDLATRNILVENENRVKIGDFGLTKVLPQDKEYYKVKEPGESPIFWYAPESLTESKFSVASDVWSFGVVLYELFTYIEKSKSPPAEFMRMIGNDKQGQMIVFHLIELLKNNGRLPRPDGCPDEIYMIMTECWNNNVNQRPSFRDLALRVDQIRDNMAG
Description: 2. Assay for Inhibitory Activity (IC50) Against JAK2 Kinase
A testing platform for JAK2 kinase activity was established based on Homogeneous Time-Resolved Fluorescence (HTRF) assay, and the activities of the compounds were tested using the platform. The compounds were subjected to three-fold gradient dilution with 100% DMSO with a starting concentration of 1 mM (11 concentrations in total). 4 μL of diluted sample for each concentration was added to 96 μL of reaction buffer (50 mM HEPES, pH7.4, 10 mM MgCl2, 1 mM EDTA, 0.01% Tween-20, 0.005% BSA and 2 mM DTT) and mixed homogeneously. 2.5 μL of the resulting liquid was then added to a 384-well plate (OptiPlate-384, purchased from PerkinElmer), and 5 μL of JAK2 kinase (purchased from Carna, and the final concentration thereof is 0.05 nM) was added, and mixed homogeneously by centrifugation. Then 2.5 μL of a mixture of ATP (the final concentration is 5 μM) and TK peptide (HTRF® KinEASE™-TK, purchased from Cisbio, and the final concentration is 100 nM) was added to initiate the reaction (the total reaction volume is 10 μL). The 384-well plate was placed in an incubator to incubate for 120 min at 23° C. Then the reaction was terminated by adding 5 μL of Eu3+ cryptate-labled anti-phosphotyrosine antibody (purchased from Cisbio), and 5 μL of Streptavidin-XL-665 (HTRF® KinEASE™-TK, purchased from Cisbio). After incubated for 1 hr in the incubator, the fluorescence values were read on Envision (purchased from PerkinElmer). The excitation wavelength was 320 nm, and the emission wavelengths for detection were 665 nm and 620 nm. The enzymatic activity was represented by a ratio of the two readout at the two emission wavelengths. The enzymatic activity for each compound was tested at 11 concentrations, and IC50 values of the compounds were obtained by calculating the data using GraFit6.0 software (Erithacus Software).

TrkA kinase, sequence (P04629 33-796): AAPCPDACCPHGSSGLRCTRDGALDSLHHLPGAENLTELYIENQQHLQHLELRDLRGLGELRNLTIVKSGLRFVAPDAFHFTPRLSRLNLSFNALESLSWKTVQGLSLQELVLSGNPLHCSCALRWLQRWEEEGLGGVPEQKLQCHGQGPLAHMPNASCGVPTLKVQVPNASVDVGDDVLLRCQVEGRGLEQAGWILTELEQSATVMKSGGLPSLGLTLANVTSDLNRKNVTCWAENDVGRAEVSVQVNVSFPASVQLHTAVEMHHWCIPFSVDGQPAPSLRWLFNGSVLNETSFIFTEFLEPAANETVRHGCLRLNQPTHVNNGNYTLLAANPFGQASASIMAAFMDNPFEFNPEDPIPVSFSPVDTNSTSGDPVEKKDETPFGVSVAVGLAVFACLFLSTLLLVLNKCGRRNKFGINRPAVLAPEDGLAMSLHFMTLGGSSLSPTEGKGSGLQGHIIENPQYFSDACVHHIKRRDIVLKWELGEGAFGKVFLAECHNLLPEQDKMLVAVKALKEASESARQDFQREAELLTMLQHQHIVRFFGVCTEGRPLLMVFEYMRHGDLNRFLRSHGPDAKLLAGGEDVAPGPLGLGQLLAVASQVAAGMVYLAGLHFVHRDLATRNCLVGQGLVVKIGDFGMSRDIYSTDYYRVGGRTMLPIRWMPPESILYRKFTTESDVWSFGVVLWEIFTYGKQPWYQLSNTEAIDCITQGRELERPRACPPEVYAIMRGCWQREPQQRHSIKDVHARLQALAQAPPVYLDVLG

IC50 ([1]; Table 1, ATP 40 μM) [nM]	SMILES	other results
< 1	Nc1nn2ccc(N3CCCC3c3cc(F)ccc3F)nc2c1-c1nc(C(=O)N2CC[C@H](O)C2)cs1 (stereo partly drawn) [Example 30, (2-(2-amino-5-(2-(2,5-difluorophenyl)pyrrolidin-1-yl)pyrazolo[1,5-a]pyrimidin-3-yl)thiazol-4-yl)((S)-3-hydroxypyrrolidin-1-yl)methanone]	
< 1	Nc1nn2ccc(N3C[C@@H](F)C[C@@H]3c3cc(F)ccc3F)nc2c1C(=O)NCCO [Example 49, 2-amino-5-((2R,4S)-2-(2,5-difluorophenyl)-4-fluoropyrrolidin-1-yl)-N-(2-hydroxyethyl)pyrazolo[1,5-a]pyrimidine-3-carboxamide]	
< 100	Nc1nn2ccc(N3CCC[C@@H]3c3cc(F)ccc3F)nc2c1C(=O)O [Example 2, (R)-2-amino-5-(2-(2,5-difluorophenyl)pyrrolidin-1-yl)pyrazolo[1,5-a]pyrimidine-3-carboxylic Acid]	
< 1	Nc1nn2ccc(N3CCC[C@@H]3c3cc(F)ccc3F)nc2c1C(=O)NCCO [Example 13, (R)-2-amino-5-(2-(2,5-difluorophenyl)pyrrolidin-1-yl)-N-(2-hydroxyethyl)pyrazolo[1,5-a]pyrimidine-3-carboxamide]	
< 1000	NC(=O)c1c(N)nn2ccc(N3C[C@@H](O)CC3c3cc(F)ccc3F)nc12 (stereo in doubt) [Example 47, 2-amino-5-((2R,4S)-2-(2,5-difluorophenyl)-4-hydroxypyrrolidin-1-yl)pyrazolo[1,5-a]pyrimidine-3-carboxamide]	
< 1	CCOC(=O)c1c(N)nn2ccc(N3CCC[C@@H]3c3cc(F)ccc3F)nc12 [Example 1, ethyl (R)-2-amino-5-(2-(2,5-difluorophenyl)pyrrolidin-1-yl)pyrazolo[1,5-a]pyrimidine-3-carboxylate]	
< 25	Nc1nn2ccc(N3CCCC3c3cc(F)ccc3F)nc2c1-c1cccc(N2CCOCC2)c1 (stereo not shown) [Example 33, 5-(2-(2,5-difluorophenyl)pyrrolidin-1-yl)-3-(3-morpholinylphenyl)pyrazolo[1,5-a]pyrimidin-2-amine]	
< 1	NC(=S)c1c(N)nn2ccc(N3CCCC3c3cc(F)ccc3F)nc12 (stereo not shown) [Example 31, 2-amino-5-(2-(2,5-difluorophenyl)pyrrolidin-1-yl)pyrazolo[1,5-a]pyrimidine-3-thioamide]	
< 1	NC(=O)c1c(N)nn2ccc(N3CCCC3c3cc(F)ccc3F)nc12 (stereo not shown) [Example 6, 2-amino-5-(2-(2,5-difluorophenyl)pyrrolidin-1-yl)pyrazolo[1,5-a]pyrimidine-3-carboxamide]	
< 1	Nc1nn2ccc(N3CCC[C@@H]3c3cc(F)ccc3F)nc2c1C(=O)Nc1ccc(F)cc1 [Example 14, (R)-2-amino-5-(2-(2,5-difluorophenyl)pyrrolidin-1-yl)-N-(4-fluorophenyl)pyrazolo[1,5-a]pyrimidine-3-carboxamide]	IC50 ([1]; Table 2, ATP 40 μM): < 1 nM; IC50 [2]: < 10 nM; IC50 [3]: < 10 nM; IC50 [4]: > 500 nM
< 100	CCNc1nn2ccc(N3CCC[C@@H]3c3cc(F)ccc3F)nc2c1C(=O)OCC [Example 22, ethyl (R)-5-(2-(2,5-difluorophenyl)pyrrolidin-1-yl)-2-(ethylamino)pyrazolo[1,5-a]pyrimidine-3-carboxylate]	
< 1	CNC(=O)c1c(N)nn2ccc(N3CCC[C@@H]3c3cc(F)ccc3F)nc12 [Example 3, (R)-2-amino-5-(2-(2,5-difluorophenyl)pyrrolidin-1-yl)-N-methylpyrazolo[1,5-a]pyrimidine-3-carboxamide]	
< 25	CCOC(=O)c1c(N)nn2ccc(N3CC(=O)CC3c3cc(F)ccc3F)nc12 (stereo not shown) [Example 43, ethyl 2-amino-5-(2-(2,5-difluorophenyl)-4-oxopyrrolidin-1-yl)pyrazolo[1,5-a]pyrimidine-3-carboxylate]	
< 100	CCOC(=O)c1c(NCCN2CCOCC2)nn2ccc(N3CCC[C@@H]3c3cc(F)ccc3F)nc12 [Example 23, ethyl (R)-5-(2-(2,5-difluorophenyl)pyrrolidin-1-yl)-2-((2-morpholinylethyl)amino)pyrazolo[1,5-a]pyrimidine-3-carboxylate]	
< 1	CN(C)CCNC(=O)c1c(N)nn2ccc(N3CCC[C@@H]3c3cc(F)ccc3F)nc12 [Example 19, (R)-2-amino-5-(2-(2,5-difluorophenyl)pyrrolidin-1-yl)-N-(2-(dimethylamino)ethyl)pyrazolo[1,5-a]pyrimidine-3-carboxamide]	
< 1	CCOC(=O)c1c(N)nn2ccc(N3CCCC3c3cc(F)ccc3F)nc12 (stereo not shown) [Example 5, ethyl 2-amino-5-(2-(2,5-difluorophenyl)pyrrolidin-1-yl)pyrazolo[1,5-a]pyrimidine-3-carboxylate]	
< 500	Nc1cc2nc(N3CCCC3c3cc(F)ccc3F)ccn2n1 (stereo not shown) [Example 24, 5-(2-(2,5-difluorophenyl)pyrrolidin-1-yl)pyrazolo[1,5-a]pyrimidin-2-amine]	
< 100	CCOC(=O)c1c(NC(=O)NC)nn2ccc(N3CCCC3c3cc(F)ccc3F)nc12 (stereo not shown) [Example 7, ethyl 5-(2-(2,5-difluorophenyl)pyrrolidin-1-yl)-2-(3-methylureido)pyrazolo[1,5-a]pyrimidine-3-carboxylate]	
< 1	NC(=O)c1c(N)nn2ccc(N3CCC[C@@H]3c3cc(F)ccc3F)nc12 [Example 4, (R)-2-amino-5-(2-(2,5-difluorophenyl)pyrrolidin-1-yl)pyrazolo[1,5-a]pyrimidine-3-carboxamide]	IC50 ([1]; Table 2, ATP 40 μM): < 1 nM; IC50 [2]: < 10 nM; IC50 [3]: < 10 nM; IC50 [4]: > 2000 nM
< 500	CCOC(=O)c1c(N)nn2ccc(N3C[C@@H](F)C[C@H]3c3cc(F)ccc3F)nc12 [Example 37, ethyl 2-amino-5-((2S,4S)-2-(2,5-difluorophenyl)-4-fluoropyrrolidin-1-yl)pyrazolo[1,5-a]pyrimidine-3-carboxylate]	
